Test results from patent publication US4713453A, “Oxabicycloheptane derivatives” (Suntori Limited, priority 1986, dated 1987).
Converted amounts (≈) assume the structure as drawn. “Also recorded” adds a separate entry of the source. Like-named read-outs stand apart in the source and are kept apart here.

Key:
[1] = tested on: rabbit platelet rich plasma; experiment: Effect on in vitro platelet aggregation; assay type: cell-based, rabbit (male Japanese white); conditions: for IC50: Oryctolagus cuniculus, Platelet
Description: 5. Effect on in vitro platelet aggregation Arterial blood was drawn from the ear artery of male Japanese white rabbits. Platelet rich plasma (PRP) was prepared by centrifugation of 9 ml of blood mixed with 1 ml of 3.8% sodium citrate as anticoagulant. Platelet aggregation was measured optically according to Born's method. ADP (10 μM), collagen (37.5 μg/ml), platelet activating factor (PAF, 0.11 nM) and calcium ionophore A 23187 (1 μg/ml) were used as platelet aggregators. Test compounds were added 1 minute prior to the addition of aggregating agents.

[2] = tested on: rabbit platelet rich plasma; experiment: Effect on in vitro platelet aggregation; assay type: cell-based, rabbit (male Japanese white); conditions: Oryctolagus cuniculus, aggregator AA, read-out: Anti-platelet aggregation IC50, AA
Male ddY mice [3] = experiment: Anti-cerebroischemic effect (brain protection after ischemia by decapitation): gasping time; assay type: in vivo, mouse (male ddY); conditions: intraperitoneal, 30 min before decapitation
Description: 1. Anti-cerebroischemic effect (i.e., brain protection after ischemia by decapitation)
Male ddY mice weighing 22-30 g were used in groups each consisting of 6 animals. Test compounds were administered intraperitoneally to the mice which were decapitated 30 minutes after the administration. The gasping time, or the duration of time between the onset of panting after decapitation and its cessation, was measured, and this was compared with the gasping time for a control group which were given only a liquid vehicle.

Male ddY mice [4] = experiment: Anti-hypoxia effect (brain protection in low-oxygen state after evacuation): survival time; assay type: in vivo, mouse (male ddY); conditions: intraperitoneal, 180 mmHg
Description: 2. Anti-hypoxia effect (i.e., […] protection in low-oxygen state after evacuation)
Male ddY m8mice weighing 22-30 g were used in groups each consisting of 7-10 animals. The mice were placed in a desiccator (capacity: ca. 1,000 ml) which was evacuated with a vacuum pump to an internal pressure of 180 mmHg after intraperitoneal administration of test compounds. The survival time, or the duration of time between the start of evacuation and the cessation of breathing, was measured, and this was compared with the value for a vehicle group. Any survival time longer than a period of 15 minutes after application of a hypoxia load was counted as 15 minutes.

vertebral artery = experiment: Effect on blood flow in the vertebral artery, blood pressure and heart rate in anesthetized dogs; assay type: in vivo, dog (mongrel); conditions: femoral vein
Description: 4. Effect on blood flow in the vertebral artery, blood pressure and heart rate in anesthetized dogs
Mongrel dogs of either sex, weighing 6.8-9.4 kg, were used. The animals were anesthetized with an intravenous injection, at first, of 30 mg/kg of sodium thiopental and thereafter, of a combination of urethane 400 mg/kg and α-chloralose 60 mg/kg. Under artificial ventilation (20 ml/kg/stroke, 20 strokes/min), blood flow in the vertebral artery and blood pressure were measured with the aid of an extracorporeal electromagnetic flow probe placed on the artery and a pressure transducer, respectively. Vertebral vascular resistance was recorded with an electronic divider and heart rate was measured with a heart rate counter triggered by blood pressure pulses. All of these parameters were recorded on a polygraph continuously. When these parameters became stable, test compounds were injected into the femoral vein.

[5] = tested on: scopolamine amnesia mouse; experiment: Anti-amnesia effect (scopolamine-induced retrograde amnesia), step-through passive avoidance; assay type: in vivo, mouse (male ddY); conditions: ip, 24 h, significant prolongation of step-through latency, intraperitoneal, scopolamine 0.5 mg/kg s.c., read-out: Minimum effective amount
Description: 6a. Anti-amnesia effect (i.e., capability of preventing scopolamine-inducedretrograde amnesia)
Five-week old male ddY weighing 25-30 g were used in groups each consisting of 10 animals. Memory retention deficit induced by scopolamine was evaluated by two-compartment step-through passive avoidance task. […] The floor of the dark compartment was provided with a current-conducting grid.
The experimental method was as follows. A scopolamine amnesia mouse that had been given subcutaneous injection of 0.5 mg/kg of an aqueous solution of scopolamine borate 20 minutes before was placed in the light compartment and when its forefeet touched the grid floor of the dark compartment, a current of 0.6 mA was applied to give a foot shock to the mouse (acquired conation). Immediately thereafter, a selected test compound or a control (physiological saline solution) was administered intraperitoneally. Twenty-four hours later, the mouse was replaced in the light compartment and the step-through latency, or the time required for the mouse to move to the dark compartment, was measured for a period of up to 300 seconds (test conation). The minimum effective amount of the test compound that provided a significant prolongation of the step-through latency over the control was determined.

[6] = tested on: ECS-induced amnesia in mice; experiment: Effect on electroconvulsive shock (ECS)-induced amnesia in mice, step-through passive avoidance; assay type: in vivo, mouse (male ddY); conditions: 6.25 and 12.5 mg/kg, intraperitoneal, 30 minutes before retention test
Description: (§1) 6b. Effects on electroconvulsive shock (ECS)- and cycloheximide-induced amnesia in mice
(§2) Male, ddY strain mice, weighing 25 to 35 g, were used. Memory retention deficit induced by ECS and cycloheximide was evaluated by two-compartment step-through passive avoidance task using a light-dark apparatus. Passive avoidance training test began by placing the mouse into the light compartment. When the mouse moved completely into the dark compartment, a shock of 0.6 mA was applied from the grid floor. Amnesia was induced in the following two ways. In the first one, a single ECS (current 50 mA, frequency 50 Hz, pulse width 1 msec, shock duration 1 msec) was applied via a pair of electrodes attached to the head immediately after receiving the foot shock, and the mouse was returned to its home cage. Test compounds were administered intraperitoneally 30 minutes before a retention test. In the second one, cycloheximide (40 mg/kg) was administered subcutaneously 30 minutes before the training and the compounds in question were administered intraperitoneally immediately after the training. A retention test was given 24 hours later. The test procedures proceeded in a manner similar to the training one, and time to entry into the dark compartment was measured for 300 seconds.

[7] = tested on: cycloheximide-induced amnesia in mice; experiment: Effect on cycloheximide-induced amnesia in mice, step-through passive avoidance; assay type: in vivo, mouse (male ddY); conditions: 6.25 and 50 mg/kg, intraperitoneal, immediately after training; cycloheximide 40 mg/kg s.c.
Description: as §1, §2

Male ICR mice = experiment: Anti-depression effect (forced swimming, revolutions of water wheel); assay type: in vivo, mouse (male ICR); conditions: 50 mg/kg, intraperitoneal
Text: Male ICR mice weighing 25-30 g were used in groups each consisting of 6 or 7 animals. […] First, the mouse was subjected to force swimming for two days on a 15-minutes-a-day basis; starting on the third day, the mouse that had received intraperitoneal injection of a test compound one hour before was subjected to forced swimming for 3 days on a 15-minutes-a-day basis.

[8] = aggregator ADP (10 μM), read-out: Anti-platelet aggregation IC50, ADP
[9] = aggregator PAF (0.11 nM), read-out: Anti-platelet aggregation IC50, PAF
[10] = aggregator calcium ionophore A 23187 (1 μg/ml), read-out: Anti-platelet aggregation IC50, A 23187
[11] = aggregator collagen (37.5 μg/ml), read-out: Anti-platelet aggregation IC50, Collagen

NCCCCCCNS(=O)(=O)c1cccc2c(Cl)cccc12 [Example W-7]
IC50 [1, 8]: 18 µg/mL (≈ 52.8 µM)
IC50 [1, 9]: 27 µg/mL (≈ 79.2 µM)
IC50 [1, 10]: 19 µg/mL (≈ 55.7 µM)
IC50 [1, 11]: 11 µg/mL (≈ 32.3 µM)
IC50 [2]: 11 µg/mL (≈ 32.3 µM)

CN(C)CCCN1c2ccccc2Sc2ccc(Cl)cc21 [Chlorpromazine]
IC50 [1, 8]: 57 µg/mL (≈ 179 µM)
IC50 [1, 9]: 93 µg/mL (≈ 292 µM)
IC50 [1, 10]: 125 µg/mL (≈ 392 µM)
IC50 [1, 11]: 22 µg/mL (≈ 69 µM)
IC50 [2]: 105 µg/mL (≈ 329 µM)

CN(C)CCCON=C1c2ccccc2OC2(c3ccccc3)CC12 (stereo not shown) [Example 2, 3,4-Benzo-5-(3-dimethylaminopropyl)oxyimino-1-phenyl-2-oxabicyclo[4.1.0]heptane]
prolongation of gasping time (Male ddY mice [3]; 12.5 mg/kg): significant prolongation of the gasping time
prolongation of gasping time (Male ddY mice [3]; 25 mg/kg): significantly prolonging the gasping time
prolongation of survival time (Male ddY mice [4]; 6.25 mg/kg or smaller): significant prolongation of the survival time
prolongation of survival time (Male ddY mice [4]; 12.5 mg/kg): significantly prolonging the survival time
blood pressure (vertebral artery; 3.0 mg/kg): small decrease
heart rate (vertebral artery; 3.0 mg/kg): increase
vertebral vascular resistance (vertebral artery; 3.0 mg/kg): further decrease
blood pressure (vertebral artery; 0.3 and 1.0 mg/kg): almost no change
heart rate (vertebral artery; 0.3 and 1.0 mg/kg): almost no change
vertebral vascular resistance (vertebral artery; 0.3 and 1.0 mg/kg): dose-dependent decreases
IC50 [1, 8]: 34.5 µg/mL (≈ 103 µM)
IC50 [1, 9]: 20 µg/mL (≈ 59.4 µM)
IC50 [1, 10]: 69 µg/mL (≈ 205 µM)
IC50 [1, 11]: 4.1 µg/mL (≈ 12.2 µM)
platelet aggregation ([1]; all the aggregators used, listed as Compound No. 2): decreases in platelet aggregation induced by all the aggregators used; also recorded: nonspecific inhibitory actions on in vitro platelet aggregation
minimal effective dose [5]: 3.2 mg/kg
prevention of ECS-induced shortening of step-through latency [6]: significantly prevented the ECS-induced shortening of step-through latency
prolongation of step-through latency shortened by cycloheximide [7]: significantly prolonged the step-through latency
anti-depression effect (Male ICR mice): anti-depression effect
rotation of the water wheel relative to control group (Male ICR mice; one hour before forced swimming): 1.8 times
IC50 [2]: 54 µg/mL (≈ 161 µM)
